# Measured values from ChEMBL document CHEMBL1201862, “PubChem BioAssay data set” (2004).
# Calls of active or inactive are those of the source.
# Key:
# Assay type in all cases: functional
# [1] = biological target: T1, Calpain-2 catalytic subunit (Sus scrofa, UniProt P43367); assay: m-calpain protease blockers, concentration series – biochemical, fluorogenic peptide substrate, dose response (AID 1420)
# T1 sequence (P43367 whole entry): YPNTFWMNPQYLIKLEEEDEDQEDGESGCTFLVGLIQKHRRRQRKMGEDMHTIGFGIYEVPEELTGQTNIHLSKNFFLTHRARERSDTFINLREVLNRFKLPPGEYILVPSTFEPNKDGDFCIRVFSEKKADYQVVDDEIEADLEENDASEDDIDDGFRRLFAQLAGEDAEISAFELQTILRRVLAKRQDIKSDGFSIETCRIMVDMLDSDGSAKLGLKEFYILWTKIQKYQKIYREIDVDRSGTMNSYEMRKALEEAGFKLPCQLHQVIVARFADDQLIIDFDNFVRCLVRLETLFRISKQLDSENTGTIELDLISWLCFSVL
# [2] = biological target: T2, Replicative DNA helicase DnaB (Mycobacterium tuberculosis, UniProt P9WMR3); assay: DnaB intein splicing inhibitors, dose response, biochemical, cell-free fluorescence (AID 449749)
# T2 sequence (P9WMR3 whole entry): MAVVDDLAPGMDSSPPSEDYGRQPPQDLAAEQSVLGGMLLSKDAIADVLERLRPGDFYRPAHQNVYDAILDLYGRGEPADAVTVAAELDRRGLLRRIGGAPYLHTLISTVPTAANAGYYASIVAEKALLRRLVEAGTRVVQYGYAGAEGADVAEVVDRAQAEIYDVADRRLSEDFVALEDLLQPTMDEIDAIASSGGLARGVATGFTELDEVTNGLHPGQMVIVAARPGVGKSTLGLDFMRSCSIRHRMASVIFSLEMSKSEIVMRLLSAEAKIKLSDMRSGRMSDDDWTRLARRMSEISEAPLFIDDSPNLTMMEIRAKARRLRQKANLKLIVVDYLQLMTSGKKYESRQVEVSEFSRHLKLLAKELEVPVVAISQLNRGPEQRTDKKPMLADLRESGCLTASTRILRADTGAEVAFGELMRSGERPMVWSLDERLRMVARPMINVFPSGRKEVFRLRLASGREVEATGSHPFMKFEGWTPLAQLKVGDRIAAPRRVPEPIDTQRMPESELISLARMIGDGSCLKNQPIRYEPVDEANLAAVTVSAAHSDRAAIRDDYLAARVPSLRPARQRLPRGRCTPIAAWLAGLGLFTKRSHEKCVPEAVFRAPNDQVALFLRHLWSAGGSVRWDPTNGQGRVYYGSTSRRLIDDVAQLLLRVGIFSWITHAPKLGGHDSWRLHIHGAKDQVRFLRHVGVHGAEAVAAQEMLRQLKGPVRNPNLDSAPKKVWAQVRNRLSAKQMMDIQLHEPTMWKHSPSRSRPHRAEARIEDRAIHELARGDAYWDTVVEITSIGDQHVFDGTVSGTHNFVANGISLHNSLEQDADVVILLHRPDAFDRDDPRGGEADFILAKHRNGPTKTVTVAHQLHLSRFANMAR
# Protein RecA = biological target: T3, Protein RecA (Mycobacterium tuberculosis, UniProt P9WHJ3); assay: Fluorescence Cell-Free Homogeneous Dose Retest to Identify Inhibitors of RecA-Intein Splicing Activity. [Related pubchem assays (depositor defined):AID2097, AID2223, AID489010, AID492950]
# T3 sequence (P9WHJ3 whole entry): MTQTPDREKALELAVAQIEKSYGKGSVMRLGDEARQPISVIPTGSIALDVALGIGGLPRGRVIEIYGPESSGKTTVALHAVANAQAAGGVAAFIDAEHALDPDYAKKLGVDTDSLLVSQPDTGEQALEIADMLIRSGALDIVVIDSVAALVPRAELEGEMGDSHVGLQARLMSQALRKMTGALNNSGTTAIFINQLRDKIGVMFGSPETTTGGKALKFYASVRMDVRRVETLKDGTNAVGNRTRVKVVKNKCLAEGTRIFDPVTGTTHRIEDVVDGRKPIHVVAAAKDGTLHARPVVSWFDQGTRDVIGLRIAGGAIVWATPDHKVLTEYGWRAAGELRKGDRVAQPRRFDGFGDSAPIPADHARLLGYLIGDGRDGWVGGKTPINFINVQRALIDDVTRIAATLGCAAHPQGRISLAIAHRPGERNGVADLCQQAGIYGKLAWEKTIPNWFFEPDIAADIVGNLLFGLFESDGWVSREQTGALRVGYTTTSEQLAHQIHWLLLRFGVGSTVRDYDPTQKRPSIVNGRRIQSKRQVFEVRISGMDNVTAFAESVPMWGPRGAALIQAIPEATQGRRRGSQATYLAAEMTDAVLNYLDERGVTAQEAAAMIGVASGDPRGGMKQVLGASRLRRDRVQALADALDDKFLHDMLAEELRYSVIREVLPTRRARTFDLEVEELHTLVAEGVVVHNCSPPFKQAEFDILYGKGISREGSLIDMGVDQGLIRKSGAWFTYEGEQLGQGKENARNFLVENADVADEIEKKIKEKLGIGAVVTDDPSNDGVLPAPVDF
# [3] = biological target: Protein kinase C theta type (Homo sapiens, UniProt Q04759); assay: Navigating the Kinome. Panel member name: PRKCQ
# Activin receptor type-1 = Activin receptor type-1 (Homo sapiens, UniProt Q04771); assay: Navigating the Kinome. Panel member name: ACVR1
# Aurora kinase A = Aurora kinase A (Homo sapiens, UniProt O14965);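 further: value from the Navigating the Kinome kinase panel profiling, panel entry STK6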
# Aurora kinase A, sequence (O14965 whole entry): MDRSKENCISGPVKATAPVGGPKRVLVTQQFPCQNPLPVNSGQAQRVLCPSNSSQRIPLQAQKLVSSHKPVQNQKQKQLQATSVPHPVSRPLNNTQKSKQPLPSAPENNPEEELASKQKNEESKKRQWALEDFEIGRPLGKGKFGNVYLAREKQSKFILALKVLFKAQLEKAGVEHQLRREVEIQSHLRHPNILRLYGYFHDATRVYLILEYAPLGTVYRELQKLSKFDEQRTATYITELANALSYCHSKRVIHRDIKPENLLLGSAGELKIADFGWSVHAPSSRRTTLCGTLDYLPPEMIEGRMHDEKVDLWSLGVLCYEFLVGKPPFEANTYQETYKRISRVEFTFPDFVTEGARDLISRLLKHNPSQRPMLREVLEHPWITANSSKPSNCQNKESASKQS
# [4] = biological target: Mitogen-activated protein kinase 9 (Homo sapiens, UniProt P45984);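 further: value from a kinome panel profiling assay, MAPK9 panel entry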
# [5] = biological target: High affinity nerve growth factor receptor (Homo sapiens, UniProt P04629);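 further: NTRK1 tested as one member of a kinome-wide profiling panel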
# High affinity nerve growth factor receptor, sequence (P04629 whole entry): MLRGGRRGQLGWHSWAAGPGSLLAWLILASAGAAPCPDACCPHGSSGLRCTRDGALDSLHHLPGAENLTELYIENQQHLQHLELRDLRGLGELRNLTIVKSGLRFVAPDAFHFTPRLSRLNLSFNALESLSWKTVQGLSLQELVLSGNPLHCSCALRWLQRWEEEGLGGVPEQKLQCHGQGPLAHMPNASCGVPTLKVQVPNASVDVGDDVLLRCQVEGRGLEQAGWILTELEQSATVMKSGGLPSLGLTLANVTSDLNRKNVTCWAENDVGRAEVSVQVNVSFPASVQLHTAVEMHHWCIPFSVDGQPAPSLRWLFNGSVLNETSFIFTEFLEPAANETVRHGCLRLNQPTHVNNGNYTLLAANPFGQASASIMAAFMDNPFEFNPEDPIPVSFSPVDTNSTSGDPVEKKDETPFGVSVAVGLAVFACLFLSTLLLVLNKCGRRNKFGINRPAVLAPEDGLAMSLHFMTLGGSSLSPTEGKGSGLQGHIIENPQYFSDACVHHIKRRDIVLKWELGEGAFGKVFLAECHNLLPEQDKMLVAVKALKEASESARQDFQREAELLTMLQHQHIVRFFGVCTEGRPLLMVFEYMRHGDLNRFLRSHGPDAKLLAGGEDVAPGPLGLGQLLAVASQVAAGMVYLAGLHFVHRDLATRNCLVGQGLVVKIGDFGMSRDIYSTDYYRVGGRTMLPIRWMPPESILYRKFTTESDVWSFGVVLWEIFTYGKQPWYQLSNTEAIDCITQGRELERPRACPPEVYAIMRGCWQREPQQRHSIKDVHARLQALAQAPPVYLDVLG
# [6] = biological target: Glycogen synthase kinase-3 alpha (Homo sapiens, UniProt P49840);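 further: GSK3A result taken from a broad kinome-wide kinase panel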
# [7] = biological target: Mitogen-activated protein kinase kinase kinase kinase 2 (Homo sapiens, UniProt Q12851);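 further: measured as one member of a kinome-wide kinase panel, with MAP4K2 as the panel entry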
# Mitogen-activated protein kinase kinase kinase kinase 2, sequence (Q12851 whole entry): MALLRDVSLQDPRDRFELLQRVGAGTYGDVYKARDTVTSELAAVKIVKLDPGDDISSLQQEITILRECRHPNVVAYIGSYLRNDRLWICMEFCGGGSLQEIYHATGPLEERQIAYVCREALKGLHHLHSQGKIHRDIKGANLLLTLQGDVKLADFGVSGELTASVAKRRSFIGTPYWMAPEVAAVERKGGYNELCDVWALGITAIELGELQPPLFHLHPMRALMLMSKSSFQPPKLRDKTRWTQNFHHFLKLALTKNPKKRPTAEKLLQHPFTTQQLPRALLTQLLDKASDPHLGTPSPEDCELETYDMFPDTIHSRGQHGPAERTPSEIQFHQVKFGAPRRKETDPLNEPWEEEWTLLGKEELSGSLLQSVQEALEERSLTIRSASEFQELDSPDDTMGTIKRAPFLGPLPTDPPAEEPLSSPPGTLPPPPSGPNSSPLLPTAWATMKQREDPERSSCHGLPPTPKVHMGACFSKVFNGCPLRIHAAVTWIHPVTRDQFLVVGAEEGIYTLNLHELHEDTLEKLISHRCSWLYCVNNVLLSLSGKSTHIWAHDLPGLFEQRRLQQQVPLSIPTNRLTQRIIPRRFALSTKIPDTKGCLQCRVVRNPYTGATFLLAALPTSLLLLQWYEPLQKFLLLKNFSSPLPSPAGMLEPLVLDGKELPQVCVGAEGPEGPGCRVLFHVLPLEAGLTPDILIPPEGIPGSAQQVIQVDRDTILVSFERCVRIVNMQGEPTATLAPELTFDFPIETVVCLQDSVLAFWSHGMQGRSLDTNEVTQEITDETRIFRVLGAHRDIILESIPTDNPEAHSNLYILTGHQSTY
# [8] = biological target: Tyrosine-protein kinase ABL1 (Homo sapiens, UniProt P00519)
# Tyrosine-protein kinase ABL1, sequence (P00519 whole entry): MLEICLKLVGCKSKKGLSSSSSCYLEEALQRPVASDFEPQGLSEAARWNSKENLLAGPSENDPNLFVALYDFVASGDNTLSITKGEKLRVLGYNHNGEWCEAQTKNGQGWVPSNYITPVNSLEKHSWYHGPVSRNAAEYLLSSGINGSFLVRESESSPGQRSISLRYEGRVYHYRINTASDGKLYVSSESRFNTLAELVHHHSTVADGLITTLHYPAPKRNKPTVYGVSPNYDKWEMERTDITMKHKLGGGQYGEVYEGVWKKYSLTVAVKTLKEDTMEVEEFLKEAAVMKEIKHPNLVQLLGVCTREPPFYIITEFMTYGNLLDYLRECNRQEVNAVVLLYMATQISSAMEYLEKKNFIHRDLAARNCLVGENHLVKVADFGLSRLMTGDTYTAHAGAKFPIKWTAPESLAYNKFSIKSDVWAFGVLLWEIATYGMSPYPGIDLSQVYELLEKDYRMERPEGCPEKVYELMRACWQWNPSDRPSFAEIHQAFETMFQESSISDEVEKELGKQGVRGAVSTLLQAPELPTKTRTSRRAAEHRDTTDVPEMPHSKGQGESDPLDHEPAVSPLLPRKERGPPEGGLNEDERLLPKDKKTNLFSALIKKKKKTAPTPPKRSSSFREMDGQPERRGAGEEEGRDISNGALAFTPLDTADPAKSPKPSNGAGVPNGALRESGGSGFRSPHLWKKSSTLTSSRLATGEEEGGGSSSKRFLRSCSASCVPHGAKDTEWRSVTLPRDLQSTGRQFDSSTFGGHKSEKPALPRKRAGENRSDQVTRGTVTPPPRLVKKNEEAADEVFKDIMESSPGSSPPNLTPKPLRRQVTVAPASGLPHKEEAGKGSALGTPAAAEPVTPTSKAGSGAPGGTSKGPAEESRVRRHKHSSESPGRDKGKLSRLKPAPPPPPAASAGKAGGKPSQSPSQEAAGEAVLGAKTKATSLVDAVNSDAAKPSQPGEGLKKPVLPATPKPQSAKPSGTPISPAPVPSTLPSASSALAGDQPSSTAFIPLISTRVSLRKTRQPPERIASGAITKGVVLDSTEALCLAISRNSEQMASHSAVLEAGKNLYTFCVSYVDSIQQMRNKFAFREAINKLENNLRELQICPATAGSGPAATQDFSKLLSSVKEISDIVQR
# [9] = biological target: Dual specificity tyrosine-phosphorylation-regulated kinase 1B (Homo sapiens, UniProt Q9Y463); assay: Navigating the Kinome. Panel member name: DYRK1B
# [10] = biological target: cAMP-dependent protein kinase catalytic subunit PRKX (Homo sapiens, UniProt P51817)
# cAMP-dependent protein kinase catalytic subunit PRKX, sequence (P51817 whole entry): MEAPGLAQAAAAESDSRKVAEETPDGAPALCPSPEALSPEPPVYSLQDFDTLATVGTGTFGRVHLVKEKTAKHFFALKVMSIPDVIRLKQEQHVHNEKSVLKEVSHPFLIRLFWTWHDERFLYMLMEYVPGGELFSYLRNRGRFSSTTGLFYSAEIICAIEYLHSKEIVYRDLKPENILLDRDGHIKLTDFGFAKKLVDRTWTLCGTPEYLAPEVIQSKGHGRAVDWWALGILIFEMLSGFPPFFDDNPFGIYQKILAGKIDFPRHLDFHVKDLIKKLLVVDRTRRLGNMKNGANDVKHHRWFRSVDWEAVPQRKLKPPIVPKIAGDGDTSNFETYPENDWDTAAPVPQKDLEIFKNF
# [11] = biological target: Cyclin-dependent kinase 8 (Homo sapiens, UniProt P49336); assay: Navigating the Kinome. Panel member name: CDK8
# Cyclin-dependent kinase 8, sequence (P49336 whole entry): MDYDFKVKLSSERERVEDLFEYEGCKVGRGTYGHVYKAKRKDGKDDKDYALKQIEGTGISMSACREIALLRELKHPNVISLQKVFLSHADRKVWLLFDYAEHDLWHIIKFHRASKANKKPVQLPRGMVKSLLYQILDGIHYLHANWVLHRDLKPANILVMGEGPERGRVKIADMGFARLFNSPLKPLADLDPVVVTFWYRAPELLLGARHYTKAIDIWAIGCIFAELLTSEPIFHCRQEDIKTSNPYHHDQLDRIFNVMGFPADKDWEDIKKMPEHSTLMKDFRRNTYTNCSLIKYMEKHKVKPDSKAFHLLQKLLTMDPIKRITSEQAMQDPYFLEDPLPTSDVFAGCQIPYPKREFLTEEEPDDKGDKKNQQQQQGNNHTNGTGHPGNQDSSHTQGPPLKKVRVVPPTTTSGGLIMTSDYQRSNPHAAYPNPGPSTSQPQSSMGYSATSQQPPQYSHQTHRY
# [12] = biological target: Dual specificity protein kinase CLK4 (Homo sapiens, UniProt Q9HAZ1)
# Dual specificity protein kinase CLK4, sequence (Q9HAZ1 whole entry): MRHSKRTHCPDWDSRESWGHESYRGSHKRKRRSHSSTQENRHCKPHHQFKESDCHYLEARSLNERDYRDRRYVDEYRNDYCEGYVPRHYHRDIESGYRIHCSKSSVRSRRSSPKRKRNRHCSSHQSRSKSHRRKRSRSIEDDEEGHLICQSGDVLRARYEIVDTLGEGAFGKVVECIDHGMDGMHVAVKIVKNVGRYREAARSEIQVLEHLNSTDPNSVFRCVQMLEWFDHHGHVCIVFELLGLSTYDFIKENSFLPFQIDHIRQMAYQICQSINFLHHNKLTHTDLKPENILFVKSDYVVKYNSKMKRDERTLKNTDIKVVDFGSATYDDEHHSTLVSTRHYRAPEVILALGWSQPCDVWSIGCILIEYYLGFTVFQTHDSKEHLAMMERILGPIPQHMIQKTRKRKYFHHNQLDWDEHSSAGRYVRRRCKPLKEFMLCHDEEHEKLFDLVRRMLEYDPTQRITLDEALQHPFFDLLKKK
# [13] = biological target: Calcium/calmodulin-dependent protein kinase type II subunit alpha (Homo sapiens, UniProt Q9UQM7); assay: Navigating the Kinome. Panel member name: CAMK2A
# Calcium/calmodulin-dependent protein kinase type II subunit alpha, sequence (Q9UQM7 whole entry): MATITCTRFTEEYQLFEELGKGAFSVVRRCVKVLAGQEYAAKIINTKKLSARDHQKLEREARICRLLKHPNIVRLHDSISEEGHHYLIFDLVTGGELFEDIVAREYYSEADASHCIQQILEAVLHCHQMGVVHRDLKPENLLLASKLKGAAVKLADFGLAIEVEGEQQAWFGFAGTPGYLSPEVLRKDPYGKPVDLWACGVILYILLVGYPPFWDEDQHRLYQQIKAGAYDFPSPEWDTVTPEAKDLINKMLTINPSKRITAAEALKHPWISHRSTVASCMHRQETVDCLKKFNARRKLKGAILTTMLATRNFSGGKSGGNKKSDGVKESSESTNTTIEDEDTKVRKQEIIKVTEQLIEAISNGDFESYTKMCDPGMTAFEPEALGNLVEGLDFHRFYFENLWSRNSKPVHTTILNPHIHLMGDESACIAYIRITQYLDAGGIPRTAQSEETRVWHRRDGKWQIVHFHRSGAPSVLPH
# Beta-galactosidase = Beta-galactosidase (Escherichia coli, UniProt Q8VNN2); assay: detection-enzyme interference by beta-gal modulators – biochemical, E. coli enzyme, set 3, artefact control for CCR6 antagonist project, dose response (AID 504712)
structure (smiles),measurement,setting,value
Cc1ccc(NC(=O)COc2cccc(/C=C3\SC(=S)N(CCC(=O)O)C3=O)c2)cc1Cl,IC50,[1],> 50 µM (not active)
same,AC50,[2],6.13 µM (active)
same,EC50,Protein RecA,19.1 µM (active)
COc1cccc(C(C)NC(=O)c2ccc(-c3ccncc3)s2)c1 (configuration not stated),Ki,[3],0.316 µM (active)
same,Ki,Activin receptor type-1,2.51 µM (active)
same,Ki,Aurora kinase A,0.2 µM (active)
same,Ki,[4],> 3.98 µM (inactive)
same,Ki,[5],> 3.16 µM (inactive)
same,Ki,[6],1 µM (active)
same,Ki,[7],> 2.51 µM (inactive)
same,Ki,[8],> 2.51 µM (inactive)
same,Ki,[9],> 2.51 µM (inactive)
same,Ki,[10],2 µM (active)
same,Ki,[11],3.16 µM (active)
same,Ki,[12],0.316 µM (active)
same,Ki,[13],> 3.98 µM (inactive)
O=Nc1c(-c2c(O)[nH]c3cc(Br)ccc23)[nH]c2ccccc12,IC50,Beta-galactosidase,40.8 µM (inactive)
